The source of these data is patent US20240199555A1, “APPLICATIONS OF BIASED LIGANDS OF THE SEROTONIN 5-HT7 RECEPTOR FOR THE TREATMENT OF PAIN, MULTIPLE SCLEROSIS AND THE CONTROL OF THERMOREGULATION” (Centre National de la Recherche Scientifique, priority 2021, published 2024).

Assay [1] has as its target human 5-HT2Cedited receptor (Homo sapiens, UniProt P28335). Nature of the assay: Radioligand binding competition, 5-HT2Cedited. The settings on record: selectivity panel.
The test system of the next assay is mice. Nature of the assay: MOG-induced experimental autoimmune encephalomyelitis (EAE) model. In kind it is in vivo. The settings on record: 1 mg/kg, ip, day 8 to day 18. An excerpt:
FIG. 12: Evaluation of the therapeutic potential of Serodolin in EAE model. A/Serodolin has been administrated for 10 days from day 8 after immunization. After 18 days post-immunization, myelin staining and cell infiltration have been evaluated in 3 groups of mice (non-immunized NI, Vehicle-treated mice or Serodolin-treated mice. B/Immunolabeling of astrocytes (GFAP) and microglia (Iba1) performed in all groups. Quantifications used Image J software. **p<0.01 *p<0.05.
Autoimmune experimental encephalomyelitis (EAE) model. For EAE model, the pathology was induced by subcutaneous injection of an emulsion of MOG35-55 peptide in complete Freund's adjuvant as previously described (Terry, Ifergan, & Miller, 2016). The mice were scored blindly once a day starting at Day 7 postimmunization until Day 30 according to the following scale: 0.0=no obvious changes in motor function; 0.5=tip of tail is limp; 1.0=limp tail; 1.5=limp tail and hind leg inhibition; 2.0=limp tail and weakness of hind legs or signs of head tilting; 2.5=limp tail and dragging of hind legs or signs of head tilting; 3.0=limp tail and complete paralysis of hind legs or limb tail with paralysis of one front and one hind leg; 3.5=limp tail and complete paralysis of hind legs and animal unable to right itself when placed on its side; 4.0=limb tail, complete hind leg, and partial front leg paralysis with minimal moving and feeding. Drugs were administered at the onset of clinical symptoms (Day 8) until Day 18 after immunization. Serodolin (1 mg/kg, ip) or vehicle was daily administered. Mice were given Ketamine/Xylasine anaesthesia and then intracardiacally perfused first with PBS EDTA for 20-30 min and then with PFA (paraformaldehyde) 4% for 20-30 min. Spinal cords were removed and incubated first in PFA 4% for 48-72 h and then in sucrose 30% Organ was included in TFM (Tissue freezing media) and snap frozen using isopentane and dry ice. Spinal cord were cut on 14 μm thick sections using Leica CM3050 S Research Cryostat for immunohistochemistry experiments.
The inventors considered that Serodolin could have some benefit effects on some chronic inflammatory processes, like those observed in MS. Myelin oligodendrocyte glycoprotein (MOG)-induced murine experimental autoimmune encephalomyelitis (EAE) is a widely accepted model for studying the clinical and pathological features of multiple sclerosis. After MOG induction of EAE (9 animals/group), the effect of AIC-01 injection was tested for […] (1 mg/kg, ip from day 8 to day 18 after MOG induction). Each animal was assessed by a behavioural test based on motor functions, and an EAE score was obtained. […] Histopathological characteristics performed after MOG-induction allowed to decipher Serodolin effect at molecular and cellular levels. […]

A further assay concerns mouse. As to the kind of experiment: Effect on body temperature. The settings on record: intravenous. In kind it is in vivo. An excerpt:
FIG. 13: Evaluation of the effect of Serodolin on body temperature.
FIG. 17: Evaluation of the effect of MOA51 on body temperature. Results expressed in ° C.
The time course of the effect of Serodolin on the body temperature has been evaluated in the mouse following intravenous administration.

Sequence of human 5-HT2Cedited receptor (P28335 33-458 limits assumed): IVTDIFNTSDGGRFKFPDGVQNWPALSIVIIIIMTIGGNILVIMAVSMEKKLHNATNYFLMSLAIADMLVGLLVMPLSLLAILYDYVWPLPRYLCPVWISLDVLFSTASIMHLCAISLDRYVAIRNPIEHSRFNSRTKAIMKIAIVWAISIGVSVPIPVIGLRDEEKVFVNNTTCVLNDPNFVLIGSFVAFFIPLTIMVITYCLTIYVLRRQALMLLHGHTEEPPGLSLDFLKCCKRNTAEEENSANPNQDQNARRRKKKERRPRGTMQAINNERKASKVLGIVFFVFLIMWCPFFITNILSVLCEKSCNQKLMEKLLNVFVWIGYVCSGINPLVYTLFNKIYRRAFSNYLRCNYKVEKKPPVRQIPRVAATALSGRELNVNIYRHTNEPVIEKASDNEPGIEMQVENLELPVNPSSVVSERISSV

With `O=c1[nH]c2ccccc2n1CN1CCN(c2ccc(F)cc2)CC1` [Serodolin], the half-maximal inhibitory concentration (IC50) in assay [1] (read-out: RLB 5-HT2Cedited IC50) came out at 1110 nM. The Ki in assay [1] (read-out: RLB 5-HT2Cedited Ki) amounted to 182 nM. Further, in the assay on mice, the “EAE score / onset of symptoms” value is “tended to show a delay in the onset of symptoms”; the “astrocytes and microglia staining” value is recorded as “significantly decreased”; the “cell infiltration (DAPI)” value is “reduces cell infiltration”; the “myelin staining, increase over vehicle-treated animals” value came to 65%. The “decrease in body temperature, Emax” value with mouse (1 mg/kg, at 30 min) was −2.9 °C. In the assay on mouse (3 mg/kg, at 30 min), the “decrease in body temperature, Emax” value was −3.6 °C. Moreover, in the assay on mouse (10 mg/kg, at 60 min), the “decrease in body temperature, Emax” value was −7.9 °C.
